Source: PubChem BioAssay (NCI)
“And” between values parts separate entries of the source, which are not always exact repeats. Equal entries are not always repeated.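 Five compound concentrations were applied to cells in 96-well plates for 48 hours; endpoints were derived by simple linear interpolation of the resulting dose-response curve. GI50: concentration for 50% inhibition of growth. TGI is the concentration that stops growth completely.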

Assays:
Assay in all cases: NCI-60 cell line screen, 48 h
[1] = tested on: SN12C renal
[2] = tested on: SF-295 CNS
[3] = tested on: NCI-H522 lung
[4] = tested on: HCC-2998 colon
[5] = tested on: SF-268 CNS
[6] = tested on: MOLT-4 leukemia
[7] = tested on: NCI-H226 lung
[8] = tested on: IGROV1 ovarian
[9] = tested on: A498 renal
[10] = tested on: BT-549 breast

| Compound | TGI [1] | TGI [2] | TGI [3] | TGI [4] | TGI [5] | TGI [6] | TGI [7] | TGI [8] | TGI [9] | GI50 [1] | GI50 [2] | GI50 [3] | GI50 [4] | GI50 [5] | GI50 [8] | GI50 [9] | GI50 [6] | GI50 [7] | GI50 [10] | TGI [10] |
| --- | --- | --- | --- | --- | --- | --- | --- | --- | --- | --- | --- | --- | --- | --- | --- | --- | --- | --- | --- | --- |
| CCOc1ccc(NC(=O)CCC(=O)NN)cc1 | > 100 µM | > 100 µM | > 100 µM | > 100 µM | > 100 µM | > 100 µM | > 100 µM |  |  |  |  |  |  |  |  |  |  |  |  |  |
| OC1C2C=CCC1CCC2 (stereo not drawn) | > 100 µM | > 100 µM | > 100 µM |  | > 100 µM | > 100 µM | > 100 µM | > 100 µM | > 100 µM |  |  |  |  |  |  |  |  |  |  |  |
| C=C=[CH][Sn]([c]1ccccc1)([c]1ccccc1)[c]1ccccc1 | 3.19 µM | 3.89 µM | 2.85 µM | 3.36 µM | 3.66 µM | 6.49 µM | 4.6 µM | 4.47 µM | 2.56 µM | 1.68 µM | 1.96 µM | 1.36 µM | 1.76 µM | 1.69 µM | 1.63 µM | 1.24 µM | 1.14 µM | 2.28 µM |  |  |
| NC(=O)CCC(NC(=O)C(F)(F)F)C(=O)O (stereo not drawn) | > 100 µM | > 100 µM | > 100 µM | > 100 µM | > 100 µM | > 100 µM | > 100 µM | > 100 µM | > 100 µM |  |  |  |  |  |  |  |  |  |  |  |
| c1cnc2c(c1)Nc1cnncc1S2 | > 100 µM | > 100 µM | > 100 µM | > 100 µM | > 100 µM | > 100 µM | > 100 µM | > 100 µM | > 100 µM |  |  |  |  |  |  |  |  |  |  |  |
| CN(NC(=O)CC(=O)NN(C)C(=S)c1ccc(Cl)cc1)C(=S)c1ccc(Cl)cc1 | > 100 µM | 19.4 µM | 60.2 µM |  | > 100 µM | > 100 µM | 45.3 µM | > 100 µM |  | 18.6 µM | 3.14 µM | 19.1 µM |  | 19.6 µM | 19.8 µM |  | 17.6 µM | 13.2 µM | 12.9 µM | 53 µM |
| CCOC(=O)CNC(=O)C(CSC(=O)N(C)O)NC(=O)CCC(N)C(=O)O (stereo not drawn) | > 2000 µM |  | > 2000 µM |  | > 2000 µM | > 2000 µM | > 2000 µM | > 2000 µM | > 2000 µM | > 2000 µM |  | > 2000 µM |  | > 2000 µM | > 2000 µM | > 2000 µM | > 2000 µM | > 2000 µM |  |  |
| CCOC(=O)C1(Cc2ccc3ccccc3c2)CCCCCN1 (stereo not drawn) | > 100 µM | 39 µM |  | 57.3 µM | > 100 µM | 90.7 µM |  | > 100 µM |  |  |  |  |  |  |  |  |  |  |  |  |
| Cc1cc(C)c2[s+]snc2c1 | > 100 µM | > 100 µM | 77.6 µM | > 100 µM | > 100 µM | > 100 µM | > 100 µM | > 100 µM | > 100 µM |  |  |  |  |  |  |  |  |  |  |  |
| O=C1c2ccccc2C(=O)c2sc(Nc3ccc(Cl)c(Cl)c3)nc21 | 3.23 µM | 29.4 µM | 4.66 µM | 29.3 µM | 12.8 µM | 6.37 µM | 16.2 µM | 10.1 µM | 31.6 µM |  |  |  |  |  |  |  |  |  |  |  |
| C[N+]1=c2c3cccc4cccc(c(=O)n2CCC1)c43 | 52.7 µM | > 100 µM | 30.2 µM |  | 60.2 µM | 58.9 µM | 36.5 µM | > 100 µM | 36.5 µM |  |  |  |  |  |  |  |  |  |  |  |
| CC1=NN(c2ccccc2)C(=O)C1N=Nc1ccc(Br)c(C)c1 (stereo not drawn) | > 100 µM | > 100 µM |  | > 100 µM |  | > 100 µM | > 100 µM | > 100 µM | > 100 µM |  |  |  |  |  |  |  |  |  |  |  |
| Nn1c(N=Nc2c(O)[nH]c3ccccc23)n[nH]c1=S | > 100 µM | > 100 µM | > 100 µM | > 100 µM | > 100 µM | > 100 µM | > 100 µM | > 100 µM | > 100 µM |  |  |  |  |  |  |  |  |  |  |  |
| CP(C)C.[Ag][I] | > 100 µM | > 100 µM |  | > 100 µM | > 100 µM | > 100 µM | > 100 µM | > 100 µM |  |  |  |  |  |  |  |  |  |  |  |  |
| NNC(=S)N/N=C/C(Cl)=C(\Cl)C(=O)O | > 100 µM | > 100 µM | > 100 µM | > 100 µM | > 100 µM | > 100 µM | > 100 µM | > 100 µM | > 100 µM |  |  |  |  |  |  |  |  |  |  |  |
| CC12C(=O)N(CCN)C(=O)C1C1c3ccccc3C2c2ccccc21 (stereo not drawn) | > 100 µM | > 100 µM | > 100 µM | > 100 µM | > 100 µM | > 100 µM | > 100 µM | > 100 µM | > 100 µM |  |  |  |  |  |  |  |  |  |  |  |

| Compound | TGI [1] | TGI [2] | TGI [3] | TGI [4] | TGI [5] | TGI [6] | TGI [7] | TGI [8] | TGI [9] | GI50 [1] | GI50 [2] | GI50 [3] | GI50 [4] | GI50 [5] | GI50 [8] | GI50 [9] | GI50 [6] | GI50 [7] | GI50 [10] | TGI [10] |
| --- | --- | --- | --- | --- | --- | --- | --- | --- | --- | --- | --- | --- | --- | --- | --- | --- | --- | --- | --- | --- |
| OC(c1ccccc1)c1c(-c2ccccc2)oc(-c2ccccc2)c1C(O)c1ccccc1 (stereo not drawn) | 18.4 µM | 29.3 µM | 11.1 µM | 33 µM | 25.5 µM | 22 µM | 21.9 µM | 28.1 µM | 30.4 µM |  |  |  |  |  |  |  |  |  |  |  |
| CC[O-].CC[O-].O=C([CH-]C(=O)c1ccccc1)c1ccccc1.O=C([CH-]C(=O)c1ccccc1)c1ccccc1.[Ti+4] | > 100 µM | > 100 µM | > 100 µM | > 100 µM | > 100 µM | > 100 µM | > 100 µM | > 100 µM | > 100 µM | > 100 µM | > 100 µM | > 100 µM | > 100 µM | > 100 µM | > 100 µM | > 100 µM | 46.5 µM | 25.2 µM |  |  |
| CC(C)(C)C[P+](C)(C)c1ccccc1 | > 100 µM | > 100 µM |  | > 100 µM | > 100 µM | > 100 µM | > 100 µM | > 100 µM |  |  |  |  |  |  |  |  |  |  |  |  |
| Oc1[nH]c2ccc(Cl)cc2c1/C=c1/ccc2c(c1)N=C(c1cc(F)cc(F)c1)N=2 | > 100 µM |  | 5.74 µM | > 100 µM | > 100 µM | > 100 µM | > 100 µM | > 100 µM |  | 5.41 µM |  | 2.14 µM | 7.55 µM | 3.7 µM | 6.21 µM |  | 3.32 µM | > 100 µM | 2.09 µM | 7.59 µM |
| Cc1cc2c(cc1C)[n+]([O-])c(-c1c(Cl)cccc1Cl)c(N)[n+]2[O-] | > 100 µM | > 100 µM | 28 µM | > 100 µM | > 100 µM | > 100 µM | 74.4 µM | > 100 µM | 79.9 µM |  |  |  |  |  |  |  |  |  |  |  |
| Cc1cccc(N=C2NC(=O)C(CC(=O)Nc3ccc(Cl)cc3C)S2)c1 (stereo not drawn) | > 100 µM | > 100 µM | > 100 µM | > 100 µM | > 100 µM | > 100 µM | > 100 µM | > 100 µM | > 100 µM |  |  |  |  |  |  |  |  |  |  |  |
| CCC[CH2][Sn]1([CH2]CCC)[O]C(=O)c2cc(C)ccc2[O]1 | 1.86 µM | 1.99 µM | 0.232 µM | 1.98 µM | 0.959 µM | 1.09 µM | 3.37 µM | 2.21 µM | 1.79 µM | 0.547 µM | 0.628 µM | 0.0859 µM | 0.67 µM | 0.268 µM | 0.924 µM | 0.565 µM | 0.301 µM | 1.85 µM |  |  |
| N#CC12Cc3ccc4c(c3-c3cccc(c31)CCN2C(=O)c1ccccc1)OCO4 (stereo not drawn) | > 100 µM | > 100 µM |  | > 100 µM | > 100 µM | > 100 µM | > 100 µM | > 100 µM | > 100 µM |  |  |  |  |  |  |  |  |  |  |  |
| CC12OC3CC(O1)C1(C=O)C4CCC5(C)C(c6ccc(=O)oc6)CCC5(O)C4CCC1(C3)O2 (stereo not drawn) |  | 1.02 µM | 0.317 µM | 2 µM | 0.229 µM | 0.244 µM | 1.23 µM | 2.44 µM | 1.35 µM |  |  |  |  |  |  |  |  |  |  |  |
| CC(C)[O-].CC(C)[O-].[O-]c1cccc2cccnc12.[O-]c1cccc2cccnc12.[Ti+4] |  | > 100 µM | 2.84 µM and 5.68 µM | > 100 µM | > 100 µM |  | > 100 µM | > 100 µM |  |  | > 100 µM | 1.41 µM and 1.93 µM | 50.4 µM | 6.4 µM and 51.1 µM |  |  |  | > 100 µM |  |  |
| COC(=O)C1=Cc2c(OC)cc(OC)c(OC)c2[C@H](c2cc(OC)c(OC)cc2OC)C1C(=O)OC (stereo partly drawn) | > 100 µM | > 100 µM | > 100 µM | > 100 µM | > 100 µM | > 100 µM | > 100 µM | > 100 µM | > 100 µM |  |  |  |  |  |  |  |  |  |  |  |
| CCc1oc2ccc(OC)c3c2c1C=CC=C3 | > 100 µM | > 100 µM | > 100 µM | > 100 µM | > 100 µM | > 100 µM | > 100 µM | > 100 µM | > 100 µM |  |  |  |  |  |  |  |  |  |  |  |
| O=c1[nH]c2c(O)cccc2c2cc3c(c(O)c12)OCO3 | 92.3 µM | 44.8 µM | 63.4 µM | 56.1 µM | 94.2 µM | > 100 µM | 55 µM | > 100 µM | 56.5 µM |  |  |  |  |  |  |  |  |  |  |  |
| CC(C)NC(=O)O/N=C1\CCC2[C@@H]3CC=C4C[C@@H](OC(=O)NC(C)C)CC[C@]4(C)C3CC[C@]12C (stereo partly drawn) | 3.14 µM | 7.67 µM | 3.4 µM | 5.06 µM | 3.22 µM | 4.81 µM | > 100 µM |  | > 30.3 µM |  |  |  |  |  |  |  |  |  |  |  |
| CCOC(=O)C1CC/C(=C(/C#N)C(=O)OC)N1 (stereo not drawn) | > 100 µM | > 100 µM | > 100 µM | > 100 µM | > 100 µM | > 100 µM |  | > 100 µM | > 100 µM |  |  |  |  |  |  |  |  |  |  |  |
| CCOC(=O)N1CCC(=O)C[C@@H]1C/C=C/P1(=O)O[C@H](c2ccccc2)C(C)N1C(C)C (stereo partly drawn) | > 100 µM | > 100 µM | > 100 µM | > 100 µM | > 100 µM | > 100 µM | > 100 µM | > 100 µM |  |  |  |  |  |  |  |  |  |  |  |  |
